Experimental data published in patent publication US20100041642A1, “UREA INHIBITORS OF MAP KINASES” (LOCUS PHARMACEUTICALS, INC., priority 2008, published 2010).

Target: p38 (Homo sapiens, UniProt Q16539)
Test: Protein Kinase Assay (33P incorporation from γ-[33P]ATP into GST-ATF-2)
Assay type: biochemical
Conditions: 2 nM p38, preincubated 20 min at 30° C.; 10 uM cold ATP, 2 uM GST-ATF2, 70 min; read-out: ACT. (Activity), IC50 category in Protein Kinase Assay
In short: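 Compounds preincubated 20 min at 30 °C with 2 nM p38; reaction started with 2 uM GST-ATF-2 (aa 19-96) and 10 uM ATP plus γ-[33P]ATP, pH 7.5, 70 min at 30 °C, 2% DMSO. Phosphoric acid stop; 33P-labelled substrate captured on phosphocellulose and counted by scintillation.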

Sequence of p38 (Q16539 whole entry): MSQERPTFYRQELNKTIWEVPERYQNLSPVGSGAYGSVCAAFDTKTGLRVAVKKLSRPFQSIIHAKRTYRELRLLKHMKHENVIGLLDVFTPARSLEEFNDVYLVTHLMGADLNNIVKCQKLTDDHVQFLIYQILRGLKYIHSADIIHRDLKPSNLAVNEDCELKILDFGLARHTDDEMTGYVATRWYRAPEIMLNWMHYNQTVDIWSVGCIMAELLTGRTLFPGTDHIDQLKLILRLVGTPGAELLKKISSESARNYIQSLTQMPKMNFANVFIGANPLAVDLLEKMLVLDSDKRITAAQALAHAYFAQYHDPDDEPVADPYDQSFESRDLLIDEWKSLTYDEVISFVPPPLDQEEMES

Row | Compound | IC50 [µM]
1 | CCc1ccc(-c2cc(NC(=O)Nc3cc(C(C)(C)C)sc3C(=O)N3CCN(C)C(=O)C3(C)C)cc(F)c2C)cn1 [1-(5-tert-butyl-2-(2,2,4-trimethyl-3-oxopiperazine-1-carbonyl)thiophen-3-yl)-3-(3-(6-ethylpyridin-3-yl)-5-fluoro-4-methylphenyl)urea] | < 0.1
2 | Cc1ccc(NC(=O)Nc2cn(C(C)(C)C)nc2C(=O)N2CCNC(=O)C2(C)C)cc1-c1ccc(CN2CCOCC2)nc1 [1-(1-tert-butyl-3-(2,2-dimethyl-3-oxopiperazine-1-carbonyl)-1H-pyrazol-4-yl)-3-(4-methyl-3-(6-(morpholinomethyl)pyridin-3-yl)phenyl)urea] | < 0.1
3 | CCc1ccc(-c2cc(NC(=O)Nc3sc(C(C)(C)C)cc3C(=O)N3CCN(C)C(=O)C3(C)C)cc(F)c2C)cn1 [1-(5-tert-butyl-3-(2,2,4-trimethyl-3-oxopiperazine-1-carbonyl)thiophen-2-yl)-3-(3-(6-ethylpyridin-3-yl)-5-fluoro-4-methylphenyl)urea] | < 0.1
4 | Cc1nnc(-c2ccc(-c3cc(NC(=O)Nc4sc(C(C)(C)C)cc4C(=O)N4CCN(C)C(=O)C4(C)C)ccc3C)cn2)o1 [1-(5-tert-butyl-3-(2,2,4-trimethyl-3-oxopiperazine-1-carbonyl)thiophen-2-yl)-3-(4-methyl-3-(6-(5-methyl-1,3,4-oxadiazol-2-yl)pyridin-3-yl)phenyl)urea] | < 0.1
5 | Cc1ccc(NC(=O)Nc2sc(C(C)(C)C)cc2C(=O)N2CCNC(=O)C2(C)C)cc1-c1ccc(NCC(C)C)nc1 [1-(5-tert-butyl-3-(2,2-dimethyl-3-oxopiperazine-1-carbonyl)thiophen-2-yl)-3-(3-(6-(isobutylamino)pyridin-3-yl)-4-methylphenyl)urea] | < 0.1
6 | COc1ccc(-c2cc(NC(=O)Nc3cc(C(C)(C)C)sc3C(=O)N3CCNC(=O)C3(C)C)ccc2C)cn1 [1-(5-tert-butyl-2-(2,2-dimethyl-3-oxopiperazine-1-carbonyl)thiophen-3-yl)-3-(3-(6-methoxypyridin-3-yl)-4-methylphenyl)urea] | < 0.1
7 | CN(C)CCOc1ccc(-c2cccc(NC(=O)Nc3sc(C(C)(C)C)cc3C(=O)N3CCNC(=O)C3(C)C)c2)cn1 [1-(5-tert-butyl-3-(2,2-dimethyl-3-oxopiperazine-1-carbonyl)thiophen-2-yl)-3-(3-(6-(2-(dimethylamino)ethoxy)pyridin-3-yl)phenyl)urea] | < 0.1
8 | CCOc1ccc(-c2cc(NC(=O)Nc3sc(C(C)(C)C)cc3C(=O)N3CCN(C)C(=O)C3(C)C)ccc2C)cn1 [1-(5-tert-butyl-3-(2,2,4-trimethyl-3-oxopiperazine-1-carbonyl)thiophen-2-yl)-3-(3-(6-ethoxypyridin-3-yl)-4-methylphenyl)urea] | < 0.1
9 | CC(=O)c1ccc(-c2cc(NC(=O)Nc3sc(C(C)(C)C)cc3C(=O)N3CCNC(=O)C3(C)C)ccc2C)cn1 [1-(5-tert-butyl-3-(2,2-dimethyl-3-oxopiperazine-1-carbonyl)thiophen-2-yl)-3-(3-(6-ethanoylpyridin-3-yl)-4-methylphenyl)urea] | < 0.1
10 | Cc1ccc(NC(=O)Nc2sc(C(C)(C)C)cc2C(=O)N2CCNC(=O)C2(C)C)cc1-c1ccc(F)nc1 [1-(5-tert-butyl-3-(2,2-dimethyl-3-oxopiperazine-1-carbonyl)thiophen-2-yl)-3-(3-(6-fluoropyridin-3-yl)-4-methylphenyl)urea] | < 0.1
11 | Cc1ccc(-c2ccc(N3CCOCC3)nc2)cc1NC(=O)Nc1sc(C(C)(C)C)cc1C(=O)N1CCNC(=O)C1(C)C [1-(5-tert-butyl-3-(2,2-dimethyl-3-oxopiperazine-1-carbonyl)thiophen-2-yl)-3-(2-methyl-5-(6-morpholinopyridin-3-yl)phenyl)urea] | < 0.1
12 | Cc1ncc(NC(=O)Nc2sc(C(C)(C)C)cc2C(=O)N2CCNC(=O)C2(C)C)cc1-c1ccc(N2CCOCC2)nc1 [1-(5-tert-butyl-3-(2,2-dimethyl-3-oxopiperazine-1-carbonyl)thiophen-2-yl)-3-(2-methyl-6′-morpholino-3,3′-bipyridin-5-yl)urea] | < 0.1
13 | CC(C)(C)c1cc(C(=O)N2CCNC(=O)C2(C)C)c(NC(=O)Nc2cccc(N3CCOCC3)c2)s1 [1-(5-tert-butyl-3-(2,2-dimethyl-3-oxopiperazine-1-carbonyl)thiophen-2-yl)-3-(3-morpholinophenyl)urea] | < 10
14 | CCN1CCN(C(=O)c2sc(C(C)(C)C)cc2NC(=O)Nc2ccc(C)c(-c3ccc(CN4CCOCC4)nc3)c2)C(C)(C)C1=O [1-(5-tert-butyl-2-(4-ethyl-2,2-dimethyl-3-oxopiperazine-1-carbonyl)thiophen-3-yl)-3-(4-methyl-3-(6-(morpholinomethyl)pyridin-3-yl)phenyl)urea] | < 0.1
15 | Cc1nnc(-c2ccc(-c3cc(NC(=O)Nc4sc(C(C)(C)C)nc4C(=O)N4CCN(C)C(=O)C4(C)C)ccc3C)cn2)o1 [1-(2-tert-butyl-4-(2,2,4-trimethyl-3-oxopiperazine-1-carbonyl)thiazol-5-yl)-3-(4-methyl-3-(6-(5-methyl-1,3,4-oxadiazol-2-yl)pyridin-3-yl)phenyl)urea] | < 0.1
16 | Cc1ccc(NC(=O)Nc2sc(C(C)(C)C)cc2C(=O)N2CCN(C)C(=O)C2(C)C)cc1-c1ccc(C(C)O)nc1 (centres unmarked) [1-(5-tert-butyl-3-(2,2,4-trimethyl-3-oxopiperazine-1-carbonyl)thiophen-2-yl)-3-(3-(6-(1-hydroxyethyl)pyridin-3-yl)-4-methylphenyl)urea] | < 0.1
17 | COc1ccc(-c2cc(NC(=O)Nc3sc(C(C)(C)C)cc3C(=O)N3CCN(C)C(=O)C3(C)C)cc(F)c2C)cn1 [1-(5-tert-butyl-3-(2,2,4-trimethyl-3-oxopiperazine-1-carbonyl)thiophen-2-yl)-3-(3-fluoro-5-(6-methoxypyridin-3-yl)-4-methylphenyl)urea] | < 0.1
18 | CCc1ccc(-c2cc(NC(=O)Nc3sc(C(C)(C)C)cc3C(=O)N3CCNC(=O)C3(C)C)cc(F)c2C)cn1 [1-(5-tert-butyl-3-(2,2-dimethyl-3-oxopiperazine-1-carbonyl)thiophen-2-yl)-3-(3-(6-ethylpyridin-3-yl)-5-fluoro-4-methylphenyl)urea] | < 0.1
19 | CCNC(=O)c1ccc(-c2cc(NC(=O)Nc3cc(C(C)(C)C)sc3C(=O)N3CCNC(=O)C3(C)C)ccc2C)cn1 | < 0.1
20 | Cc1ccc(NC(=O)Nc2sc(C(C)(C)C)cc2C(=O)N2CCN(C)C(=O)C2(C)C)cc1-c1cnc(NCC(O)CO)nc1 (centres unmarked) [1-(5-tert-butyl-3-(2,2,4-trimethyl-3-oxopiperazine-1-carbonyl)thiophen-2-yl)-3-(3-(2-(2,3-dihydroxypropylamino)pyrimidin-5-yl)-4-methylphenyl)urea] | < 0.1

Next, values leading:

Row | IC50 [µM] | Compound
21 | < 0.1 | CC(=O)N1CCN(C(=O)c2cc(C(C)(C)C)sc2NC(=O)Nc2ccc(C)c(-c3cccnc3)c2)CC1 [1-(5-tert-butyl-3-(4-ethanoylpiperazine-1-carbonyl)thiophen-2-yl)-3-(4-methyl-3-(pyridin-3-yl)phenyl)urea]
22 | < 0.1 | Cc1ccc(NC(=O)Nc2sc(C(C)(C)C)cc2C(=O)N2CCNC(=O)C2(C)C)cc1-c1ccc(CN2CCOCC2)cn1 [1-(5-tert-butyl-3-(2,2-dimethyl-3-oxopiperazine-1-carbonyl)thiophen-2-yl)-3-(4-methyl-3-(5-(morpholinomethyl)pyridin-2-yl)phenyl)urea]
23 | < 0.1 | Cc1ccc(NC(=O)Nc2sc(C(C)(C)C)cc2C(=O)N2CCNC(=O)C2(C)C)cc1-c1ccc(OCCN2CCOCC2)nc1 [1-(5-tert-butyl-3-(2,2-dimethyl-3-oxopiperazine-1-carbonyl)thiophen-2-yl)-3-(4-methyl-3-(6-(2-morpholinoethoxy)pyridin-3-yl)phenyl)urea]
24 | < 0.1 | Cc1nnc(CN2CCN(C(=O)c3cc(C(C)(C)C)sc3NC(=O)Nc3ccc(C)c(-c4ccncc4)c3)C(C)(C)C2=O)o1 [1-(5-tert-butyl-3-(3,3-dimethyl-1-((5-methyl-1,3,4-oxadiazol-2-yl)methyl)-2-oxopiperazine-4-carbonyl)thiophen-2-yl)-3-(4-methyl-3-(pyridin-4-yl)phenyl)urea]
25 | < 0.1 | CON(C)C(=O)c1ccc(-c2cc(NC(=O)Nc3sc(C(C)(C)C)cc3C(=O)N3CCN(C)C(=O)C3(C)C)ccc2C)cn1 [5-(5-(3-(5-tert-butyl-3-(2,2,4-trimethyl-3-oxopiperazine-1-carbonyl)thiophen-2-yl)ureido)-2-methylphenyl)-N-methoxy-N-methylpyridine-2-carboxamide]
26 | < 0.1 | Cc1ccc(NC(=O)Nc2sc(C(C)(C)C)cc2C(=O)N2CCN(C)C(=O)C2(C)C)cc1-c1ccc(C(N)=O)nc1 [5-(5-(3-(5-tert-butyl-3-(2,2,4-trimethyl-3-oxopiperazine-1-carbonyl)thiophen-2-yl)ureido)-2-methylphenyl)pyridine-2-carboxamide]
27 | < 0.1 | CCNC(=O)c1ccc(-c2cc(NC(=O)Nc3sc(C(C)(C)C)cc3C(=O)N3CCNC(=O)C3(C)C)ccc2C)cn1 [5-(5-(3-(5-tert-butyl-3-(2,2-dimethyl-3-oxopiperazine-1-carbonyl)thiophen-2-yl)ureido)-2-methylphenyl)-N-ethylpyridine-2-carboxamide]
28 | < 0.1 | COc1ccc(NC(=O)Nc2sc(C(C)(C)C)cc2C(=O)N2CCNC(=O)C2(C)C)c(C)c1-c1ccncc1 [1-(5-tert-butyl-3-(2,2-dimethyl-3-oxopiperazine-1-carbonyl)thiophen-2-yl)-3-(4-methoxy-2-methyl-3-(pyridin-4-yl)phenyl)urea]
29 | < 0.1 | Cc1ccc(NC(=O)Nc2sc(C(C)(C)C)cc2C(=O)N2CCNC(=O)C2(C)C)cc1-c1ccc(OC2CCOCC2)nc1 [1-(5-tert-butyl-3-(2,2-dimethyl-3-oxopiperazine-1-carbonyl)thiophen-2-yl)-3-(4-methyl-3-(6-(tetrahydro-2H-pyran-4-yloxy)pyridin-3-yl)phenyl)urea]
